Values of other authors, collected in US20200197364A1, “DIHYDROMYRICETIN NANOPARTICLE FORMULATIONS” (priority 2017, published 2020).

Assays:
[1] = data collected by EPA
[2] = through intestinal mucosa
[3] = in vivo

Log P [1]: approximately 1.31 | Permeability [2]: low | Oral bioavailability [3]: less than 5%
Structure (SMILES): O=C1c2c(O)cc(O)cc2O[C@H](c2cc(O)c(O)c(O)c2)[C@H]1O [DHM, Dihydromyricetin]
